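Assay format: 96-well plates, 48-hour exposure. GI50 = concentration required for 50% inhibition of growth. TGI: total growth inhibition.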 Bounds are passed on as bounds.

In one assay the test system is U251 CNS. The experiment in a line: growth of human tumour cells (NCI), 48 h.
Consider `COc1cc(NC(C)CCCNC2CN3CCC2CC3)c2ncccc2c1` (centres undefined), for which the GI50 was 10.6 µM and the TGI is 24 µM.

Turning to `COc1ccc(C(=O)c2cc(OC)c(OC)c(OC)c2)cc1OC(=O)CCl`, the GI50 is 0.0422 µM and the TGI is over 100 µM.

With `CN[C@@H](C)C(=O)N[C@H](C(=O)N1CCC[C@H]1C(=O)Nc1snnc1-c1ccccc1)C1CCCCC1`, the GI50 was 36.3 µM and the TGI is over 100 µM.

For the molecule `CC(C)(C)OC(=O)N1CCN(CCn2cc(C(F)(F)F)c3c(Cl)ncnc32)CC1`, the GI50 was 2.01 µM and the TGI came to 3.57 µM.

Regarding `FC(F)(F)c1ccc(Nc2nc(-c3c(C(F)(F)F)nc4ccccn34)cs2)cc1`, the GI50 was 0.0764 µM and the TGI came to 11 µM.

For `Cc1ccc(Nc2n[nH]c(=S)s2)cc1C`, the TGI is over 100 µM.

On to `CN(C)CCN1C(=O)c2ccccc2N(C)c2ccccc21`, for which the GI50 was over 100 µM and the TGI is over 100 µM.

As to `COc1cc([N+](=O)[O-])c(OC)cc1-c1nc2sc(Cl)cn2c1/C(N)=N/C(=N)N`, the GI50 was 3.41 µM and the TGI is over 100 µM.

For `O=[N+]([O-])O.[Cu+2].[NH-]CC[NH-].[NH-]CC[NH-]`, the GI50 is over 10 µM and the TGI is over 10 µM.

As for `Cc1nn2c(/C=C3\C(=O)Nc4ccc(Cl)cc43)c(C)nc2s1`, the GI50 is 46.5 µM and the TGI is over 100 µM.

As to `COc1ccc(C(=O)OC2C(OC3C(O)COC(O[C@H]4C[C@H]5[C@@H]6CC=C7C[C@@H](O)CC[C@]7(C)[C@H]6CC[C@]5(C)[C@H]4[C@H](C)C(=O)CCC(C)C)C3OC(N)=O)OCC(O)C2O)cc1` (some centres undefined), the GI50 was under 0.003 µM and the TGI came to 3.32 µM.

For `c1ccc2[nH]c(-c3ccc(-c4nccc5c4[nH]c4ccccc45)cc3)nc2c1`, the GI50 is 2.74 µM and the TGI worked out at 7.83 µM.

As to `COC(=O)c1nc(-c2ccccc2)oc1S(=O)(=O)Cc1ccccc1`, the GI50 is 15.5 µM and the TGI is 29 µM.

Another assay relates to ACHN renal. Nature of the assay: growth of human tumour cells (NCI), 48 h.
As for `COc1cc(NC(C)CCCNC2CN3CCC2CC3)c2ncccc2c1` (centres undefined), the GI50 is 14.7 µM and the TGI was 29.3 µM.

For `COc1ccc(C(=O)c2cc(OC)c(OC)c(OC)c2)cc1OC(=O)CCl`, the GI50 was under 0.0267 µM and the TGI stood at 98.7 µM.

In the case of `CN[C@@H](C)C(=O)N[C@H](C(=O)N1CCC[C@H]1C(=O)Nc1snnc1-c1ccccc1)C1CCCCC1`, the GI50 is 52.7 µM and the TGI is over 100 µM.

For `CC(C)(C)OC(=O)N1CCN(CCn2cc(C(F)(F)F)c3c(Cl)ncnc32)CC1`, the GI50 is 16.9 µM and the TGI worked out at 39.3 µM.

`FC(F)(F)c1ccc(Nc2nc(-c3c(C(F)(F)F)nc4ccccn34)cs2)cc1`: the GI50 was 0.061 µM and the TGI worked out at 6.83 µM.

Consider `Cc1ccc(Nc2n[nH]c(=S)s2)cc1C`, for which the TGI is over 100 µM.

With `CN(C)CCN1C(=O)c2ccccc2N(C)c2ccccc21`, the GI50 was over 100 µM and the TGI is over 100 µM.

Regarding `COc1cc([N+](=O)[O-])c(OC)cc1-c1nc2sc(Cl)cn2c1/C(N)=N/C(=N)N`, the GI50 is over 56.9 µM and the TGI was over 100 µM.

For the molecule `O=[N+]([O-])O.[Cu+2].[NH-]CC[NH-].[NH-]CC[NH-]`, the GI50 is over 10 µM and the TGI was over 10 µM.

As to `Cc1nn2c(/C=C3\C(=O)Nc4ccc(Cl)cc43)c(C)nc2s1`, the GI50 is 72.9 µM and the TGI is over 100 µM.

For the molecule `COc1ccc(C(=O)OC2C(OC3C(O)COC(O[C@H]4C[C@H]5[C@@H]6CC=C7C[C@@H](O)CC[C@]7(C)[C@H]6CC[C@]5(C)[C@H]4[C@H](C)C(=O)CCC(C)C)C3OC(N)=O)OCC(O)C2O)cc1` (some centres undefined), the GI50 was 0.471 µM and the TGI came out at 5.53 µM.

On to `c1ccc2[nH]c(-c3ccc(-c4nccc5c4[nH]c4ccccc45)cc3)nc2c1`, for which the GI50 is 2.05 µM and the TGI is 4.17 µM.

Turning to `COC(=O)c1nc(-c2ccccc2)oc1S(=O)(=O)Cc1ccccc1`, the GI50 is 1.77 µM and the TGI came out at 3.15 µM.

In another assay the test system is MDA-MB-435. The experiment in a line: growth of human tumour cells (NCI), 48 h.
As to `COc1cc(NC(C)CCCNC2CN3CCC2CC3)c2ncccc2c1` (centres undefined), the GI50 is 8.71 µM and the TGI stood at 22 µM.

As to `COc1ccc(C(=O)c2cc(OC)c(OC)c(OC)c2)cc1OC(=O)CCl`, the GI50 was under 0.01 µM.

With `CN[C@@H](C)C(=O)N[C@H](C(=O)N1CCC[C@H]1C(=O)Nc1snnc1-c1ccccc1)C1CCCCC1`, the GI50 was 32.1 µM and the TGI is over 100 µM.

With `CC(C)(C)OC(=O)N1CCN(CCn2cc(C(F)(F)F)c3c(Cl)ncnc32)CC1`, the GI50 is 1.84 µM and the TGI was 3.65 µM.

For the molecule `FC(F)(F)c1ccc(Nc2nc(-c3c(C(F)(F)F)nc4ccccn34)cs2)cc1`, the GI50 was 0.0161 µM and the TGI turned out to be 0.0473 µM.

The molecule `Cc1ccc(Nc2n[nH]c(=S)s2)cc1C` gave a TGI of over 100 µM.

In the case of `CN(C)CCN1C(=O)c2ccccc2N(C)c2ccccc21`, the GI50 was over 100 µM and the TGI is over 100 µM.

Consider `COc1cc([N+](=O)[O-])c(OC)cc1-c1nc2sc(Cl)cn2c1/C(N)=N/C(=N)N`, for which the GI50 is 1.9 µM and the TGI was 4.64 µM.

As for `O=[N+]([O-])O.[Cu+2].[NH-]CC[NH-].[NH-]CC[NH-]`, the GI50 is over 10 µM and the TGI was over 10 µM.

As to `Cc1nn2c(/C=C3\C(=O)Nc4ccc(Cl)cc43)c(C)nc2s1`, the GI50 is 3.4 µM and the TGI worked out at 26.7 µM.

For the molecule `COc1ccc(C(=O)OC2C(OC3C(O)COC(O[C@H]4C[C@H]5[C@@H]6CC=C7C[C@@H](O)CC[C@]7(C)[C@H]6CC[C@]5(C)[C@H]4[C@H](C)C(=O)CCC(C)C)C3OC(N)=O)OCC(O)C2O)cc1` (some centres undefined), the GI50 is 0.0346 µM and the TGI stood at 0.547 µM.

Turning to `c1ccc2[nH]c(-c3ccc(-c4nccc5c4[nH]c4ccccc45)cc3)nc2c1`, the GI50 is 1.92 µM and the TGI stood at 4.27 µM.

With `COC(=O)c1nc(-c2ccccc2)oc1S(=O)(=O)Cc1ccccc1`, the GI50 was 11.1 µM and the TGI came to 23.6 µM.

In another assay the test system is A498 renal. The experiment in a line: growth of human tumour cells (NCI), 48 h.
Regarding `COc1cc(NC(C)CCCNC2CN3CCC2CC3)c2ncccc2c1` (centres undefined), the GI50 is 2.05 µM and the TGI is 16.8 µM.

In the case of `COc1ccc(C(=O)c2cc(OC)c(OC)c(OC)c2)cc1OC(=O)CCl`, the GI50 was 2.07 µM and the TGI stood at 7.01 µM.

For the molecule `CN[C@@H](C)C(=O)N[C@H](C(=O)N1CCC[C@H]1C(=O)Nc1snnc1-c1ccccc1)C1CCCCC1`, the GI50 is 19.5 µM and the TGI is 57.3 µM.

For the molecule `CC(C)(C)OC(=O)N1CCN(CCn2cc(C(F)(F)F)c3c(Cl)ncnc32)CC1`, the GI50 is 18.2 µM and the TGI came out at 32.7 µM.

For `FC(F)(F)c1ccc(Nc2nc(-c3c(C(F)(F)F)nc4ccccn34)cs2)cc1`, the GI50 was 0.0268 µM and the TGI came to 0.193 µM.

For the molecule `Cc1ccc(Nc2n[nH]c(=S)s2)cc1C`, the TGI was over 100 µM.

For `CN(C)CCN1C(=O)c2ccccc2N(C)c2ccccc21`, the GI50 was over 100 µM and the TGI is over 100 µM.

For `COc1cc([N+](=O)[O-])c(OC)cc1-c1nc2sc(Cl)cn2c1/C(N)=N/C(=N)N`, the GI50 was 20.7 µM and the TGI stood at 48.6 µM.

`O=[N+]([O-])O.[Cu+2].[NH-]CC[NH-].[NH-]CC[NH-]`: the GI50 was over 10 µM and the TGI was over 10 µM.

Take `Cc1nn2c(/C=C3\C(=O)Nc4ccc(Cl)cc43)c(C)nc2s1`: the GI50 was 46 µM and the TGI is over 100 µM.

With `COc1ccc(C(=O)OC2C(OC3C(O)COC(O[C@H]4C[C@H]5[C@@H]6CC=C7C[C@@H](O)CC[C@]7(C)[C@H]6CC[C@]5(C)[C@H]4[C@H](C)C(=O)CCC(C)C)C3OC(N)=O)OCC(O)C2O)cc1` (some centres undefined), the GI50 is 0.00699 µM and the TGI amounted to 0.0351 µM.

As to `c1ccc2[nH]c(-c3ccc(-c4nccc5c4[nH]c4ccccc45)cc3)nc2c1`, the GI50 is 11.4 µM and the TGI was found to be 25.5 µM.

As for `COC(=O)c1nc(-c2ccccc2)oc1S(=O)(=O)Cc1ccccc1`, the GI50 was 15.9 µM and the TGI was 29.7 µM.

For the origin of these results see PubChem BioAssay (NCI).
